Measurements taken from patent US10828301B2, “2,4-pyrimidinediamine compounds and their uses” (Rigel Pharmaceuticals, Inc, priority 2002, dated 2020).

How the values were obtained:
[1] = test system: cultured human mast cells (CHMC); test: CHMC low cell density IgE activation: tryptase and LTC4 assays; type: cell-based; conditions: Homo sapiens, Mast cell, Low Density CHMC, anti-IgE activation, tryptase readout; read-out: CHMC anti-IgE Tryptase
Outline: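 Cultured human mast cells at low density (1000-1500 per well) rested 1 h at 37° C, then stimulated with anti-IgE for 30 min at 37° C. Supernatant tryptase measured with fluorogenic substrate (30 min, room temperature); LTC4 quantified by ELISA on diluted supernatant.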

[2] = test system: cultured human mast cells (CHMC); test: CHMC low cell density ionomycin activation: tryptase assay; type: cell-based; conditions: Homo sapiens, Mast cell, Low Density CHMC, ionomycin activation, tryptase readout; read-out: CHMC Ionomycin Tryptase

| IC50 [1] | IC50 [2] | Structure (SMILES) |
| --- | --- | --- |
| > 10 µM | > 10 µM | Oc1cccc(Nc2nc(NCc3cccnc3)ncc2F)c1 [Compound R945165, 5-Fluoro-N4-(3-hydroxyphenyl)-N2-(3-pyridylmethyl)-2,4-pyrimidinediamine] |
| 0.496 µM | > 10 µM | Nc1cccc(Nc2nc(Nc3ccc4c(c3)N=CCO4)ncc2F)c1 [Compound R950254, N4-(3-Aminophenyl)-N2-(1,4-benzoxazin-6-yl)-5-fluoro-2,4-pyrimidinediamine] |
| 9.04 µM | > 10 µM | Fc1cnc(N=Cc2ccoc2)nc1Nc1ccc2c(c1)OCCO2 [Compound R950203, N4-(3,4-Ethylenedioxyphenyl)-N2-(3-furanylmethylene)-5-fluoro-2,4-pyrimidinediamine] |
| 10 µM | > 10 µM | COc1ccc(OCCNNc2ncc(F)c(Nc3cccc(O)c3)n2)cc1 [Compound R950211, 5-Fluoro-N4-(3-hydroxyphenyl)-N2-(4-methoxyphenyloxyethyleneamino)-2,4-pyrimidinediamine] |
| 10 µM | > 10 µM | Oc1cccc(Nc2nc(NCC3COc4ccccc4O3)ncc2F)c1 (stereo not drawn) [Compound R950214, N2-(2,3-Dihydro-1,4-benzodioxin-2-ylmethyl)-5-fluoro-N4-(3-hydroxyphenyl)-2,4-pyrimidinediamine] |
| 0.874 µM | > 10 µM | Nc1cccc(Nc2nc(Nc3cccc(O)c3)ncc2F)c1 [Compound R950163, N4-(3-Aminophenyl)-5-fluoro-N2-(3-hydroxyphenyl)-2,4-pyrimidinediamine] |
| 9 µM | > 10 µM | Fc1cnc(NCc2ccc3c(c2)CCO3)nc1Nc1ccc2c(c1)OCCO2 [Compound R950205, N2-[2,3-Dihydrobenzo[b]furan-5-ylmethyl]-N4-(3,4-ethylenedioxyphenyl)-5-fluoro-2,4-pyrimidinediamine] |
| 1.02 µM | > 10 µM | N#Cc1cccc(Nc2nc(Nc3cccc(O)c3)ncc2F)c1 [Compound R945109, N4-(3-Cyanophenyl)-5-fluoro-N2-(3-hydroxyphenyl)-2,4-pyrimidinediamine] |

Second part, the molecule before the results:

| Structure (SMILES) | IC50 [1] | IC50 [2] |
| --- | --- | --- |
| Oc1ccc(CCNc2ncc(F)c(NCCc3ccc(O)cc3)n2)cc1 [Compound R925791, N2,N4-Bis[2-(4-hydroxyphenyl)ethyl]-5-fluoro-2,4-pyrimidinediamine] | > 10 µM | > 10 µM |
| CC(C)Oc1ccc(Nc2nc(Nc3ccc(C(C)(C)CO)cc3)ncc2F)cc1 [Compound R935151, 5-Fluoro-N2-[4-(2-hydroxy-1,1-dimethylethyl)phenyl]-N4-(4-isopropoxyphenyl)-2,4-pyrimidinediamine] | 0.479 µM | > 10 µM |
| Cc1cnc(Nc2ccccc2-c2ccccc2)nc1Nc1ccccc1-c1ccccc1 [Compound R926404, N2,N4-Bis(2-phenylphenyl)-5-methyl-2,4-pyrimidinediamine] | > 10 µM | > 10 µM |
| Cc1cc(Nc2ncc(F)c(Nc3ccc4c(c3)OCCO4)n2)cc(C(F)(F)F)c1 [Compound R926895, N4-(3,4-Ethylenedioxyphenyl)-5-fluoro-N2-(3-methyl-5-trifluoromethylphenyl)-2,4-pyrimidinediamine] | 0.339 µM | > 10 µM |
| COc1cc(Nc2ncc(F)c(Nc3cc(OC)c(OC)c(OC)c3)n2)cc(OC)c1OC [Compound R926688, N2,N4-Bis(3,4,5-trimethoxyphenyl)-5-fluoro-2,4-pyrimidinediamine] | 2.25 µM | > 10 µM |
| Fc1cc(Nc2ncc(F)c(Nc3ccc4c(c3)OCCO4)n2)cc(C(F)(F)F)c1 [Compound R926894, N4-(3,4-Ethylenedioxyphenyl)-5-fluoro-N2-(3-fluoro-5-trifluoromethylphenyl)-2,4-pyrimidinediamine] | > 10 µM | > 10 µM |
| Oc1ccc(Nc2ncc(F)c(Nc3ccc(O)cc3)n2)cc1 [Compound R926405, N2,N4-Bis(4-hydroxyphenyl)-5-fluoro-2,4-pyrimidinediamine] | 3.4 µM | > 10 µM |
| COC(=O)c1cccc(Nc2ncc(F)c(Nc3cccc(C(=O)OC)c3)n2)c1 [Compound R945035, N2,N4-Bis(3-methoxycarbonylphenyl)-5-fluoro-2,4-pyrimidinediamine] | > 10 µM | > 10 µM |
| COC(=O)c1cc2cc(Nc3ncc(F)c(Nc4ccc(Cl)c(Cl)c4)n3)ccc2o1 [Compound R927027, N4-(3,4-Dichlorophenyl)-5-fluoro-N2-(2-methoxycarbonylbenzofuran-5-yl)-2,4-pyrimidinediamine] | > 10 µM | > 10 µM |
| Oc1cccc(Nc2cc(Cl)nc(Nc3cccc(O)c3)n2)c1 [Compound R926408, N2,N4-Bis(3-hydroxyphenyl)-6-chloro-2,4-pyrimidinediamine] | 9.6 µM | > 10 µM |
| CNC(=O)c1cc2cc(Nc3nc(Nc4ccc5c(c4)OCCO5)ncc3F)ccc2o1 [Compound R926491, N2-(3,4-Ethylenedioxyphenyl)-5-fluoro-N4-[2-(N-methylamino)carbonylbenzofuran-5-yl]-2,4-pyrimidinediamine] | 1.16 µM | > 10 µM |
| Oc1cccc(Nc2nc(Nc3cc(Cl)c(O)c(Cl)c3)ncc2F)c1 [Compound R926890, 5-Fluoro-N2-(3,5-dichloro-4-hydroxyphenyl)-N4-(3-hydroxyphenyl)-2,4-pyrimidinediamine] | 0.361 µM | > 10 µM |
| CCCCOc1ccc(Nc2cc(Nc3ccc4c(c3)OCCO4)c(F)cn2)cc1 [Compound R920666, N2-(4-n-Butyloxyphenyl)-N4-(3,4-ethylenedioxyphenyl)-5-fluoro-2,4-pyridinediamine] | 2.53 µM | > 10 µM |
| Cc1ccc(-c2ccccc2)cc1Nc1ncc(Br)c(Nc2cc(-c3ccccc3)ccc2C)n1 [Compound R925800, N2,N4-Bis(2-methyl-5-phenylphenyl)-5-bromo-2,4-pyrimidinediamine] | > 10 µM | > 10 µM |
| Fc1cnc(Nc2ccccc2-c2ccccc2)nc1Nc1ccccc1-c1ccccc1 [Compound R926398, N2,N4-Bis(2-phenylphenyl)-5-fluoro-2,4-pyrimidinediamine] | > 10 µM | > 10 µM |
| COC(=O)c1cc2cc(Nc3ncc(F)c(Nc4ccc5oc(C(=O)OC)cc5c4)n3)ccc2o1 [Compound R926604, N2,N4-Bis(2-methoxycarbonylbenzofuran-5-yl)-5-fluoro-2,4-pyrimidinediamine] | 2.85 µM | > 10 µM |
| CNC(=O)C1Cc2cc(Nc3ncc(F)c(Nc4ccc(OC)c(Cl)c4)n3)ccc2O1 (stereo not drawn) [Compound R926955, N4-(3-Chloro-4-methoxyphenyl)-5-fluoro-N2-[2,3-dihydro-2-[(N-methylamino)carbonyl]benzofuran-5-yl]-2,4-pyrimidinediamine] | 0.36 µM | > 10 µM |
| COC(=O)c1cc2cc(Nc3ncc(F)c(Nc4cccc(C(C)C)c4)n3)ccc2o1 [Compound R940283, 5-fluoro-N4-(3-isopropylphenyl)-N2-(2-methoxycarbonylbenzofur-5-yl)-2,4-pyrimidinediamine] | 0.553 µM | 4.98 µM |
| Oc1ccc(CCNc2ncc(Br)c(NCCc3ccc(O)cc3)n2)cc1 [Compound R925792, N2,N4-Bis[2-(4-hydroxyphenyl)ethyl]-5-bromo-2,4-pyrimidinediamine] | 6.25 µM | > 10 µM |
